For the assay, the system named is Balb/c3T3 fibroblasts. Put plainly: Inhibition of fibroblast growth (Coulter cell counting). The assay is classed as cell-based. As for the experimental part:
Cells were then transferred to above medium containing indicated concentrations of dipyridamole. After three days cell growth was determined by counting using a ZM Coulter counter (Coulter Diagnostic, Inc.).

As for `OCCN(CCO)c1nc(N2CCCCC2)c2nc(N(CCO)CCO)nc(N3CCCCC3)c2n1` [Dipyridamole, 2,6-bis(diethanolamino)-4,8-dipiperidinopyrimido[5,4-d]pyrimidine], under “Mus musculus, BALB/c3T3, 72 h, dipyridamole 1.0 μg/ml, three days, 5% fetal bovine serum”, the inhibition – broadly, the percentage by which the read-out fell short of the control – at 1 µg/mL worked out at 0%. Where the note is “Mus musculus, BALB/c3T3, 72 h, dipyridamole 5.0 μg/ml, three days, 5% fetal bovine serum”, at 5 µg/mL the inhibition was 55%. The compound further yielded an inhibition at 10 µg/mL (Mus musculus, BALB/c3T3, 72 h, dipyridamole 10 μg/ml, three days, 5% fetal bovine serum) of 72%. Moreover, the inhibition at 20 µg/mL (Mus musculus, BALB/c3T3, 72 h, dipyridamole 20 μg/ml, three days, 5% fetal bovine serum) came out at 86%. The compound also yielded an inhibition at 40 µg/mL (Mus musculus, BALB/c3T3, 72 h, dipyridamole 40 μg/ml, three days, 5% fetal bovine serum) of 95%. Moreover, the “inhibition of proliferation of cells of mesenchyme origin” value (fibroblasts) is listed as “inhibits proliferation of cells of mesenchyme origin”.
